The values below come from article PMC10824666 (Nature Cancer, 2023).

Where two headings read alike, the source gives them in different places.

What all share (test): biochemical
Set-up in all cases: Eurofins DiscoverX kinase panel, competitive binding assay at 1 uM, percent of DMSO control
Holding throughout (settings): competitive binding, percent of DMSO control

Test [1] has as its target WEE1 (Homo sapiens, UniProt P30291). An outline of the steps: (§1)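 Competitive binding assay across a 96-kinase panel with KIF18A compounds at 1 µM; values given as percentage of control (POC), single experiment.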
In test [2] the target is T1, DMPK (Homo sapiens, UniProt Q09013).
T1 sequence (Q09013 1-629): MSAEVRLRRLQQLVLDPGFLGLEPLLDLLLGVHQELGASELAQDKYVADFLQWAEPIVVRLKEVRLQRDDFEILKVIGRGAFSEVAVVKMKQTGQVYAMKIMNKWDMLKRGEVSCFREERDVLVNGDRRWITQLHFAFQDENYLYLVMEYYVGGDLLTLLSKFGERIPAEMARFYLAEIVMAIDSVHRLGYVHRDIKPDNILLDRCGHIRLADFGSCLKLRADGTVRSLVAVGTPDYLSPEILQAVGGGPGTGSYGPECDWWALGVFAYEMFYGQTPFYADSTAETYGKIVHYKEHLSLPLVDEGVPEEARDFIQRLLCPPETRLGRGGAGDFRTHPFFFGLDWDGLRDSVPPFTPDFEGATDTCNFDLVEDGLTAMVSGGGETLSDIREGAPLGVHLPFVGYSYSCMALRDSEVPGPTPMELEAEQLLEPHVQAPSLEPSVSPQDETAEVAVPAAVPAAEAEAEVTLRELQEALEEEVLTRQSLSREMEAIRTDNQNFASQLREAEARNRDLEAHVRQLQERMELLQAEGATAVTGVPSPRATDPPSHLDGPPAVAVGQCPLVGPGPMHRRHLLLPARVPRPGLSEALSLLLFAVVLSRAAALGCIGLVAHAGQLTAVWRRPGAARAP
Put shortly: as §1

In test [3] the target is ALK (Homo sapiens, UniProt Q9UM73). An outline of the steps:
as §1

Test [4] concerns the target Stk33 (Homo sapiens, UniProt Q9BYT3). An outline of the steps:
as §1

Setting [5] is: read-out: Kinome Profiling performed by Eurofins DiscoverX / AM-0277, 1.0 µM / POC.
[6] abbreviates: read-out: Kinome Profiling performed by Eurofins DiscoverX / AM-1882, 1.0 µM / POC.
The mark [7] stands for this setting: read-out: Kinome Profiling performed by Eurofins DiscoverX / AM-5308, 1.0 µM / POC.

Chain of WEE1 (P30291 whole entry): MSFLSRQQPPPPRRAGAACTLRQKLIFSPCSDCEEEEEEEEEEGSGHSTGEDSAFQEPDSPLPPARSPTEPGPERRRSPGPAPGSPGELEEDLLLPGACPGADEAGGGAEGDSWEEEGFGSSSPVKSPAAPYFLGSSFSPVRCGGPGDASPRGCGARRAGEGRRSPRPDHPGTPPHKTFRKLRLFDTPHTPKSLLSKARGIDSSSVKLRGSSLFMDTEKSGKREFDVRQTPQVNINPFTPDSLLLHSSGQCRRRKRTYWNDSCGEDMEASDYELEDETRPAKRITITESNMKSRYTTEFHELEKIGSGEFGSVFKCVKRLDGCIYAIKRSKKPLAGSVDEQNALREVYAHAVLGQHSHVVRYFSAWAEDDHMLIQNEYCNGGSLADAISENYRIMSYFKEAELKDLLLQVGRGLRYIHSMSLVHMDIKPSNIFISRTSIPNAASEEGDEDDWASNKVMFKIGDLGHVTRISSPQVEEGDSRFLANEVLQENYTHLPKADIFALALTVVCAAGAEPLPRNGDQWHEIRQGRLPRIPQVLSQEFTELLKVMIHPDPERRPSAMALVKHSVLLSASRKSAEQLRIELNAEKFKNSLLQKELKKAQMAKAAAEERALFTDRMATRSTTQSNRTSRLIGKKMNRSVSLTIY
Chain of ALK (Q9UM73 whole entry): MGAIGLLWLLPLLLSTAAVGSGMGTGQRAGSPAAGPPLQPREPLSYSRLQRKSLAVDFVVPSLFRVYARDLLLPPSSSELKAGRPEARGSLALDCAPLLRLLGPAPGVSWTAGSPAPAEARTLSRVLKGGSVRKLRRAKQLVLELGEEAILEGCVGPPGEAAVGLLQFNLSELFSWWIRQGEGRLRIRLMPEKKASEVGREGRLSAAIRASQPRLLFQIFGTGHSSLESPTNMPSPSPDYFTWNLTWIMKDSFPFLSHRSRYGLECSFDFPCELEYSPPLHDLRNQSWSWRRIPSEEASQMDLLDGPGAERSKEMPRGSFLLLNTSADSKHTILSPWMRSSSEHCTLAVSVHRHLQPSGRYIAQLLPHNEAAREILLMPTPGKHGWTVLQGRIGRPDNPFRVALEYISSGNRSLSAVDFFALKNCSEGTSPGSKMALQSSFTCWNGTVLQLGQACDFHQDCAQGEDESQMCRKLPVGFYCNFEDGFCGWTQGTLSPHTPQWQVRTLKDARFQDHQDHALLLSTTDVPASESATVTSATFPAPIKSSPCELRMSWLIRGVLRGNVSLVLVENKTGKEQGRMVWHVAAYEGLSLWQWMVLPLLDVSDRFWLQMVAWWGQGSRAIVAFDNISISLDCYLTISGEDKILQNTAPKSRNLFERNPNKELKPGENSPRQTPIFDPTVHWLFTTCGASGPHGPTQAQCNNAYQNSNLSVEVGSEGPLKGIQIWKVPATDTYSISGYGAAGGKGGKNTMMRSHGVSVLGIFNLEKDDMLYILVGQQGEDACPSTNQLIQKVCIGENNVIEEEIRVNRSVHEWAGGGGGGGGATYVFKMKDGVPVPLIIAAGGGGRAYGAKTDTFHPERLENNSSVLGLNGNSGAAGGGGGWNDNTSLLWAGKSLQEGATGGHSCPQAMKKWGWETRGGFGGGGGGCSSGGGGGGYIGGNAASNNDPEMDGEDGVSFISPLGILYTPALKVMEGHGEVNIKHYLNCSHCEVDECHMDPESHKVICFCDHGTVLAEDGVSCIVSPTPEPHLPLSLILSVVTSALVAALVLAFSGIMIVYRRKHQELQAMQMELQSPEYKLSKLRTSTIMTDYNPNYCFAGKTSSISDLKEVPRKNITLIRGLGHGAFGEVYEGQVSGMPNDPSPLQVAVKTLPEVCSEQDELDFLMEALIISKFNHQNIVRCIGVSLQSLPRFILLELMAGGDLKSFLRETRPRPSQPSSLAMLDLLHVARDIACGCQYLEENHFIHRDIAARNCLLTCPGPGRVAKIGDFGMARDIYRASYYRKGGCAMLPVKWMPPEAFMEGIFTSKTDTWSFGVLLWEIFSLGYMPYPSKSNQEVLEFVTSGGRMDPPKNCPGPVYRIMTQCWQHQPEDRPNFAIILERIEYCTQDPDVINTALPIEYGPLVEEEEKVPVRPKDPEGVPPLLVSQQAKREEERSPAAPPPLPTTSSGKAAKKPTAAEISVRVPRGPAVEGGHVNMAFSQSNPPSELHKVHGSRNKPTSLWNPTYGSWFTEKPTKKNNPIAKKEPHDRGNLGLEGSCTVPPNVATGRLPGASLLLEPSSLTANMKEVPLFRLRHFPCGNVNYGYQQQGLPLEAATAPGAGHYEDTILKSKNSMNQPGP
Chain of Stk33 (Q9BYT3 whole entry): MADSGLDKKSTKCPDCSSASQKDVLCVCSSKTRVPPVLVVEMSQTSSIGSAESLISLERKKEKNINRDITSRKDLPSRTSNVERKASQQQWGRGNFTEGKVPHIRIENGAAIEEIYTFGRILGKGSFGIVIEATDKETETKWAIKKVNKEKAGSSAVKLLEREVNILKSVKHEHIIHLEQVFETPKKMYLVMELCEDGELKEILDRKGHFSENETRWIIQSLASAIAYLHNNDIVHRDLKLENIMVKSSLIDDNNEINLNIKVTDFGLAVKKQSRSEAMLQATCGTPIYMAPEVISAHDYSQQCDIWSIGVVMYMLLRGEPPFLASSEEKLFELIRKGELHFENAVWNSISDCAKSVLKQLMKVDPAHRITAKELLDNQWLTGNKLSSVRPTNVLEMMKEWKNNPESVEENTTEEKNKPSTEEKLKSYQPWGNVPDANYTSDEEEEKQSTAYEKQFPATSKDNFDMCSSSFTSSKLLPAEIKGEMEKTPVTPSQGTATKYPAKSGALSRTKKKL

With `CC(C)(CO)Nc1ccc(C(=O)Nc2cccc(S(=O)(=O)C3CCCC3)c2)c(N2CCC3(CC2)CC3)n1` [AM-0277], the remaining activity at 1 µM amounted to 100% in test [1] (setting [5]), 100% in test [2] (setting [5]), 100% in test [3] (setting [5]) and 86% in test [4] (setting [5]).

Consider `CC(C)(C)NS(=O)(=O)c1cccc(NC(=O)c2ccc(S(=O)(=O)NC(C)(C)C)cc2N2CCC3(CC2)CC3)c1` [AM-1882], for which the remaining activity at 1 µM in test [1] (setting [6]) worked out at 50%; in test [2] (setting [6]) it was 99.5%; in test [3] (setting [6]), 81%; in test [4] (setting [6]), 98%.

Turning to `C[C@@H]1CN(c2cccc(NC(=O)c3ccc(NS(=O)(=O)CCO)cc3N3CCC4(CC3)CC4)n2)CCO1` [AM-5308], the remaining activity at 1 µM in test [1] (setting [7]) amounted to 100%; in test [2] (setting [7]) it was 92%; in test [3] (setting [7]) it was 89%; in test [4] (setting [7]), 89%.
